Results from patent publication US20140161917A1, “Use of Nesprin-2 Expression Modulators and Compositions Thereof” (Avon Products, Inc., priority 2012, published 2014).

Test system: Nesprin-2 (SYNE2)
Assay: Assay for upregulation of Nesprin-2 mRNA (Panomics Quantigene multiplex branched DNA assay) in fibroblasts
Type: cell-based, human
Conditions: 24 hours, vs vehicle control
Method: A variety of botanical extract and synthetic compounds were tested for the ability to up-regulate […]-2 (SYNE2), Gene Accession Number-NM-182914.2. Normal human dermal fibroblasts or keratinocytes were cultured in 96-well tissue culture treated plates, containing appropriate culture medium. Stock solutions of actives were made in an appropriate vehicle (water/Ethanol/DMSO). Cells were treated with test material or respective vehicle control diluted in growth medium for 24 hours in a humidified 37° C. incubator with 10% CO2. The concentrations of each extract are provided based on the dry weight of the given plant extract, by which is meant the weight of the extract after volatile extraction solvents have been removed. After incubation, growth medium from each plate was removed and 100 μL of lysis buffer was added to the wells and placed in 37° C. incubator with 10% CO2 for 30 minutes. At the end of incubation, the cells are collected in freezer plates and placed in -80° C. freezer, until analysis. Changes in mRNA for after treatment were analysed using Panomics Quantigene multiplex assay that employs a branched DNA technology, following manufacturer's instructions (Affymetrix, CA). Percent increase (up-regulation) in mRNA for the […]-2 was calculated by comparing the test results to the control.

SMILES: C[C@@H]1NC(=O)N[C@@H]1CCCCCC(=O)O [D-Desthiobiotin]
- Nesprin-2 (percent up-regulation in mRNA, scaled score) (0.0001%): ++++ (0.001%, (>80 (++++))
- Nesprin-2 (percent up-regulation in mRNA, scaled score) (0.001%): ++++ (0.001%, (>80 (++++))
